Assay results as given in US10723741B1, “DNA polymerase IIIC inhibitors and use thereof” (Acurx Pharmaceuticals, LLC, priority 2018, dated 2020).
Values after ≈ are worked out from the molar mass of the structure shown. Read-outs that look alike come from different tables or passages of the source.

How the values were obtained:
Assay type in all cases: cell-based
[1] = test system: Staphylococcus aureus NRS384 (MRSA); assay: Broth microdilution MIC, S. aureus NRS384 (MRSA); set-up: MIC NRS 384 (MRSA): unit not given here; settings: for MIC: Staphylococcus aureus, read-out: MIC NRS 384 (MRSA)
Summary of the method: (§1)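 Two-fold dilutions from 64 to 0.0625 μg/ml final, 1% DMSO, were inoculated at ~5.0×10^5 cfu/ml in the strain's test medium and kept 20 h at 37 °C in ambient atmosphere. Colonies were grown on MHA, with S. pneumoniae on blood agar under 5% CO2.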

[2] = test system: Staphylococcus aureus ATCC 29213 (MSSA); assay: Broth microdilution MIC, S. aureus ATCC 29213 (MSSA); settings: read-out: MIC S. aureus ATCC 29213 (MSSA)
Summary of the method: as §1

[3] = test system: Enterococcus faecalis ATCC 29212; assay: Broth microdilution MIC, E. faecalis ATCC 29212; settings: read-out: MIC E. faecalis ATCC 29212
Summary of the method: as §1

[4] = test system: Enterococcus faecium ATCC 700221 (VRE); assay: Broth microdilution MIC, E. faecium ATCC 700221 (VRE); set-up: MIC E. faecium ATCC 700221 (VRE): unit: ug/mL; settings: for MIC: Enterococcus faecium, read-out: MIC E. faecium ATCC 700221 (VRE)
Summary of the method: as §1

[5] = test system: Streptococcus pneumoniae ATCC 49619; assay: Broth microdilution MIC, S. pneumoniae ATCC 49619; settings: read-out: MIC S. pneumoniae ATCC 49619
Summary of the method: as §1

[6] = test system: Bacillus subtilis ATCC 6633; assay: Broth microdilution MIC, B. subtilis ATCC 6633; settings: read-out: MIC B. subtilis ATCC 6633
Summary of the method: as §1

[7] = test system: Escherichia coli ATCC 25922; assay: Broth microdilution MIC, E. coli ATCC 25922 (MHIIB w & w/o 4 mM EDTA); settings: for MIC: Escherichia coli, read-out: MIC E. coli ATCC 25922; for MIC E. coli ATCC 25922 + 4 mM EDTA: with 4 mM EDTA
Summary of the method: as §1

[8] = broth microdilution, 37° C., 20 hours
[9] = ATCC29212, broth microdilution, 37° C., 20 hours
[10] = ATCC49619, broth microdilution, 37° C., 20 hours
[11] = ATCC6633, broth microdilution, 37° C., 20 hours
[12] = ATCC25922, without EDTA, broth microdilution, 37° C., 20 hours

| Compound | MIC E. coli ATCC 25922 + 4 mM EDTA [7, 8] [mg/L] | MIC NRS 384 (MRSA) [1, 8] | MIC [2, 8] [mg/L] | MIC [3, 9] [mg/L] | MIC E. faecium ATCC 700221 (VRE) [4, 8] | MIC [5, 10] [mg/L] | MIC [6, 11] [mg/L] | MIC [7, 12] [mg/L] | MIC [1, 8] [mg/L] | MIC [4, 8] [mg/L] | MIC ([1]; 20 h) [mg/L] | MIC ([2]; 20 h) [mg/L] | MIC ([3]; ATCC29212, 20 h) [mg/L] | MIC ([4]; 20 h) [mg/L] | MIC ([5]; ATCC49619, 20 h) [mg/L] | MIC ([6]; ATCC6633, 20 h) [mg/L] | MIC ([7]; ATCC25922, 20 h) [mg/L] |
| --- | --- | --- | --- | --- | --- | --- | --- | --- | --- | --- | --- | --- | --- | --- | --- | --- | --- |
| CC(C)(C)OC(=O)NCCOCCn1ncc2nc(NCc3ccc(Cl)c(Cl)c3)[nH]c(=O)c21 [Compound 100, tert-Butyl (2-(2-(5-((3,4-dichlorobenzyl)amino)-7-oxo-6,7-dihydro-1H-pyrazolo[4,3-d]pyrimidin-1-yl)ethoxy)ethyl)carbamate] | >64 | – | – | – | – | – | – | – | – | – | > 64 | > 64 | > 64 | 4 (≈ 8.04 µM) | 8 (≈ 16.1 µM) | 2 (≈ 4.02 µM) | > 64 |
| Cl.O=c1[nH]c(NCc2ccc(Cl)c(Cl)c2)nc2cnn(Cn3cncn3)c12 [Compound 101, 1-((1H-1,2,4-triazol-1-yl)methyl)-5-((3,4-dichlorobenzyl)amino)-1H-pyrazolo[4,3-d]pyrimidin-7(6H)-one hydrochloride] | 64 | 8/8 | 4 | 4 | 2/4 | 4 | 2 | > 64 | – | – | – | – | – | – | – | – | – |
| O=c1[nH]c(NCc2ccc(Cl)c(Cl)c2)nc2cnn(CC3CCCO3)c12 (stereo not shown) [Compound 102, 5-((3,4-Dichlorobenzyl)amino)-1-((tetrahydrofuran-2-yl)methyl)-1H-pyrazolo[4,3-d]pyrimidin-7(6H)-one] | >64 | 4/4 | 4 (≈ 10.1 µM) | 4 (≈ 10.1 µM) | 2/4 | 4 (≈ 10.1 µM) | 1 (≈ 2.54 µM) | > 64 | – | – | – | – | – | – | – | – | – |
| Cl.O=c1[nH]c(NCc2ccc(Cl)c(Cl)c2)nc2cn(Cn3cncn3)nc12 [Compound 103, 2-((1H-1,2,4-triazol-1-yl)methyl)-5-((3,4-dichlorobenzyl)amino)-2H-pyrazolo[4,3-d]pyrimidin-7(6H)-one hydrochloride] | 64 | – | 64 | > 64 | – | 16 | 32 | > 64 | 64 | 64 | – | – | – | – | – | – | – |
| O=c1[nH]c(NCc2ccc(Cl)c(Cl)c2)nc2cnn(CC3COCCO3)c12 (stereo not shown) [Compound 105, 1-((1,4-Dioxan-2-yl)methyl)-5-((3,4-dichlorobenzyl)amino)-1H-pyrazolo[4,3-d]pyrimidin-7(6H)-one] | >64 | 4/2 | 4 (≈ 9.75 µM) | 8 (≈ 19.5 µM) | 4/2 | 4 (≈ 9.75 µM) | 1 (≈ 2.44 µM) | > 64 | – | – | – | – | – | – | – | – | – |
| Cl.O=c1[nH]c(NCc2ccc(Cl)c(Cl)c2)nc2cnn(Cc3ccccn3)c12 [Compound 109, 5-((3,4-Dichlorobenzyl)amino)-1-(pyridin-2-ylmethyl)-1H-pyrazolo[4,3-d]pyrimidin-7(6H)-one hydrochloride] | >64 | – | > 64 | > 64 | – | 4 | 2 | > 64 | 64 | 4 | – | – | – | – | – | – | – |
| Cl.O=c1[nH]c(NCc2ccc(Cl)c(Cl)c2)nc2cnn(CCc3cccnc3)c12 [Compound 110, 5-((3,4-Dichlorobenzyl)amino)-1-(2-(pyridin-3-yl)ethyl)-1H-pyrazolo[4,3-d]pyrimidin-7(6H)-one hydrochloride] | >64 | 2/2 | 4 | 4 | 2/2 | 4 | 1 | > 64 | – | – | – | – | – | – | – | – | – |
| Cl.O=c1[nH]c(NCc2ccc(Cl)c(Cl)c2)nc2cnn(CCc3ccccn3)c12 [Compound 111, 5-((3,4-Dichlorobenzyl)amino)-1-(2-(pyridin-2-yl)ethyl)-1H-pyrazolo[4,3-d]pyrimidin-7(6H)-one hydrochloride] | >64 | 2/2 | 4 | 8 | 2/2 | 4 | 1 | > 64 | – | – | – | – | – | – | – | – | – |
| Cl.O=c1[nH]c(NCc2ccc(Cl)c(Cl)c2)nc2cnn(Cc3cnccn3)c12 [Compound 112, 5-((3,4-Dichlorobenzyl)amino)-1-(pyrazin-2-ylmethyl)-1H-pyrazolo[4,3-d]pyrimidin-7(6H)-one hydrochloride] | >64 | 4/4 | 4 | 8 | 2/2 | 4 | 1 | > 64 | – | – | – | – | – | – | – | – | – |
| Cl.O=c1[nH]c(NCc2ccc(Cl)c(Cl)c2)nc2cnn(Cc3cccnc3)c12 [Compound 113, 5-[(3,4-Dichlorophenyl)methylamino]-1-(3-pyridylmethyl)-6H-pyrazolo[4,3-d]pyrimidin-7-one] | >64 | 4/4 | 4 | 8 | 2/2 | 8 | 1 | > 64 | – | – | – | – | – | – | – | – | – |
| O=c1[nH]c(NCc2ccc(Cl)c(Cl)c2)nc2cnn(Cc3ncccn3)c12 [Compound 114, 5-((3,4-Dichlorobenzyl)amino)-1-(pyrimidin-2-ylmethyl)-1H-pyrazolo[4,3-d]pyrimidin-7(6H)-one] | 32 | 4/4 | 8 (≈ 19.9 µM) | 16 (≈ 39.8 µM) | 4/4 | 4 (≈ 9.94 µM) | 2 (≈ 4.97 µM) | > 64 | – | – | – | – | – | – | – | – | – |

Continued, in another order:

| MIC E. coli ATCC 25922 + 4 mM EDTA [7, 8] [mg/L] | MIC NRS 384 (MRSA) [1, 8] | MIC [2, 8] [mg/L] | MIC [3, 9] [mg/L] | MIC E. faecium ATCC 700221 (VRE) [4, 8] | MIC [5, 10] [mg/L] | MIC [6, 11] [mg/L] | MIC [7, 12] [mg/L] | MIC [1, 8] [mg/L] | MIC [4, 8] [mg/L] | Compound | MIC ([1]; 20 h) [mg/L] | MIC ([2]; 20 h) [mg/L] | MIC ([3]; ATCC29212, 20 h) [mg/L] | MIC ([4]; 20 h) [mg/L] | MIC ([5]; ATCC49619, 20 h) [mg/L] | MIC ([6]; ATCC6633, 20 h) [mg/L] | MIC ([7]; ATCC25922, 20 h) [mg/L] |
| --- | --- | --- | --- | --- | --- | --- | --- | --- | --- | --- | --- | --- | --- | --- | --- | --- | --- |
| >64 | 4/4 | 4 (≈ 9.65 µM) | 4 (≈ 9.65 µM) | 2/2 | 4 (≈ 9.65 µM) | 1 (≈ 2.41 µM) | > 64 | – | – | O=c1[nH]c(NCc2ccc(Cl)c(Cl)c2)nc2cnn(CCSCCO)c12 [Compound 104, 5-((3,4-Dichlorobenzyl)amino)-1-(2-((2-hydroxyethyl)thio)ethyl)-1H-pyrazolo[4,3-d]pyrimidin-7(6H)-one] | – | – | – | – | – | – | – |
| >64 | – | 64 (≈ 155 µM) | > 64 | – | 32 (≈ 77.6 µM) | 32 (≈ 77.6 µM) | > 64 | 32 (≈ 77.6 µM) | 32 (≈ 77.6 µM) | COCC(COC)n1ncc2nc(NCc3ccc(Cl)c(Cl)c3)[nH]c(=O)c21 [Compound 106, 5-((3,4-Dichlorobenzyl)amino)-1-(1,3-dimethoxypropan-2-yl)-1H-pyrazolo[4,3-d]pyrimidin-7(6H)-one] | – | – | – | – | – | – | – |
| >64 | – | > 64 | > 64 | – | 16 (≈ 41.6 µM) | 32 (≈ 83.3 µM) | > 64 | > 64 | > 64 | O=c1[nH]c(NCc2ccc(Cl)c(Cl)c2)nc2cnn(C(CO)CO)c12 [Compound 107, 5-((3,4-Dichlorobenzyl)amino)-1-(1,3-dihydroxypropan-2-yl)-1H-pyrazolo[4,3-d]pyrimidin-7(6H)-one] | – | – | – | – | – | – | – |
| >64 | 8/4 | 4 (≈ 9.13 µM) | 8 (≈ 18.3 µM) | 4/2 | 4 (≈ 9.13 µM) | 2 (≈ 4.56 µM) | > 64 | – | – | O=c1[nH]c(NCc2ccc(Cl)c(Cl)c2)nc2cnn(CCOC3CCOCC3)c12 [Compound 108, 5-((3,4-Dichlorobenzyl)amino)-1-(2-((tetrahydro-2H-pyran-4-yl)oxy)ethyl)-1H-pyrazolo[4,3-d]pyrimidin-7(6H)-one] | – | – | – | – | – | – | – |
| >64 | – | 32 (≈ 72.3 µM) | 32 (≈ 72.3 µM) | – | 16 (≈ 36.2 µM) | 8 (≈ 18.1 µM) | > 64 | 32 (≈ 72.3 µM) | 8 (≈ 18.1 µM) | O=c1[nH]c(NCc2ccc(Cl)c(Cl)c2)nc2cnn(CCOCCOCCO)c12 [Compound 115, 5-((3,4-Dichlorobenzyl)amino)-1-(2-(2-(2-hydroxyethoxy)ethoxy)ethyl)-1H-pyrazolo[4,3-d]pyrimidin-7(6H)-one] | – | – | – | – | – | – | – |
| >64 | – | 64 (≈ 132 µM) | 16 (≈ 32.9 µM) | – | 8 (≈ 16.4 µM) | 8 (≈ 16.4 µM) | > 64 | 32 (≈ 65.8 µM) | 8 (≈ 16.4 µM) | O=c1[nH]c(NCc2ccc(Cl)c(Cl)c2)nc2cnn(CCOCCOCCOCCO)c12 [Compound 116, 5-((3,4-Dichlorobenzyl)amino)-1-(2-(2-(2-(2-hydroxyethoxy)ethoxy)ethoxy)ethyl)-1H-pyrazolo[4,3-d]pyrimidin-7(6H)-one] | – | – | – | – | – | – | – |
